Source: ChEMBL document CHEMBL3046898, “Synthesis and characterization of flurbiprofen hydrazide derivatives as potential anti-HCV, anticancer and antimicrobial agents” (2013)
Activity calls are given as the source filed them. No cut-off for these calls is given here.

Tests used:
Staphylococcus cohnii [1] = assay: Antibacterial activity against Staphylococcus cohnii at 6.25 to 200 ug/ml after 24 hrs by microwell dilution assay; assay type: functional, organism-based
Klebsiella aerogenes [2] = assay: Antibacterial activity against Enterobacter aerogenes at 6.25 to 200 ug/ml after 24 hrs by microwell dilution method; assay type: functional, organism-based
TK-10 = assay: Cytotoxicity against human TK10 assessed as cell growth at 10 uM after 48 hrs by SRB assay; assay type: functional; details: TK-10, 48 h, read-out: Activity
Photorhabdus luminescens [3] = assay: Antibacterial activity against Photorhabdus luminescens at 10 mg/ml after 24 hrs by disc diffusion method; assay type: functional, organism-based
Staphylococcus cohnii [4] = assay: Antibacterial activity against Staphylococcus cohnii at 10 mg/ml after 24 hrs by disc diffusion method; assay type: functional
HOP-62 = assay: Cytotoxicity against human HOP62 assessed as cell growth at 10 uM after 48 hrs by SRB assay; assay type: functional; details: HOP-62, 48 h, read-out: Activity
COLO 205 = assay: Cytotoxicity against human COLO205 assessed as cell growth at 10 uM after 48 hrs by SRB assay; assay type: functional; details: COLO 205, 48 h, read-out: Activity
KM12 = assay: Cytotoxicity against human KM12 assessed as cell growth at 10 uM after 48 hrs by SRB assay; assay type: functional; details: KM12, 48 h, read-out: Activity
U-251 = assay: Cytotoxicity against human U251 assessed as cell growth at 10 uM after 48 hrs by SRB assay; assay type: functional; details: U-251, 48 h, read-out: Activity
Staphylococcus aureus [5] = assay: Antibacterial activity against Staphylococcus aureus at 10 mg/ml after 24 hrs by disc diffusion method; assay type: functional
Staphylococcus aureus [6] = assay: Antibacterial activity against Staphylococcus aureus at 6.25 to 200 ug/ml after 24 hrs by microwell dilution assay; assay type: functional, organism-based
K562 = assay: Cytotoxicity against human K562 assessed as cell growth at 10 uM after 48 hrs by SRB assay; assay type: functional; details: K562, 48 h, read-out: Activity
CAKI-1 = assay: Cytotoxicity against human Caki1 assessed as cell growth at 10 uM after 48 hrs by SRB assay; assay type: functional; details: CAKI-1, 48 h, read-out: Activity
SK-MEL-2 = assay: Cytotoxicity against human SK-MEL-2 assessed as cell growth at 10 uM after 48 hrs by SRB assay; assay type: functional; details: SK-MEL-2, 48 h, read-out: Activity
NCI-H460 = assay: Cytotoxicity against human NCI-H460 assessed as cell growth at 10 uM after 48 hrs by SRB assay; assay type: functional; details: NCI-H460, 48 h, read-out: Activity
Kluyveromyces marxianus = assay: Antifungal activity against Kluyveromyces marxianus at 10 mg/ml after 48 hrs by disc diffusion method; assay type: functional, organism-based
[7] = test system: Acinetobacter radioresistens; assay: Antibacterial activity against Acinetobacter radioresistens at 6.25 to 200 ug/ml after 24 hrs by microwell dilution method; assay type: functional, organism-based
Hepacivirus hominis = assay: Inhibition of HCV N-terminal His-tagged NS5B RNA dependent RNA polymerase expressed in Escherichia coli DH5alpha using poly rA/U12 as primer at 200 uM after 60 mins by liquid scintillation counting
HL-60(TB) = assay: Cytotoxicity against human HL-60(TB) assessed as cell growth at 10 uM after 48 hrs by SRB assay; assay type: functional; details: HL-60, 48 h, read-out: Activity
786-0 = assay: Cytotoxicity against human 786-0 assessed as cell growth at 10 uM after 48 hrs by SRB assay; assay type: functional; details: 786-0, 48 h, read-out: Activity
Candida tropicalis = assay: Antifungal activity against Candida tropicalis at 10 mg/ml after 48 hrs by disc diffusion method; assay type: functional, organism-based
Pseudomonas aeruginosa [8] = assay: Antibacterial activity against Pseudomonas aeruginosa at 10 mg/ml after 24 hrs by disc diffusion method; assay type: functional, organism-based
HCT-116 = assay: Cytotoxicity against human HCT116 assessed as cell growth at 10 uM after 48 hrs by SRB assay; assay type: functional; details: HCT-116, 48 h, read-out: Activity
HCT-15 = assay: Cytotoxicity against human HCT15 assessed as cell growth at 10 uM after 48 hrs by SRB assay; assay type: functional; details: HCT-15, 48 h, read-out: Activity
CCRF-CEM = assay: Cytotoxicity against human CCRF-CEM assessed as cell growth at 10 uM after 48 hrs by SRB assay; assay type: functional; details: read-out: Activity
Photorhabdus luminescens [9] = assay: Antibacterial activity against Photorhabdus luminescens at 6.25 to 200 ug/ml after 24 hrs by microwell dilution method; assay type: functional, organism-based
[10] = test system: Acinetobacter radioresistens; assay: Antibacterial activity against Acinetobacter radioresistens at 10 mg/ml after 24 hrs by disc diffusion method; assay type: functional, organism-based
HT-29 = assay: Cytotoxicity against human HT-29 assessed as cell growth at 10 uM after 48 hrs by SRB assay; assay type: functional; details: HT-29, 48 h, read-out: Activity
Klebsiella aerogenes [11] = assay: Antibacterial activity against Enterobacter aerogenes at 10 mg/ml after 24 hrs by disc diffusion method; assay type: functional, organism-based
HOP-92 = assay: Cytotoxicity against human HOP92 assessed as cell growth at 10 uM after 48 hrs by SRB assay; assay type: functional; details: HOP-92, 48 h, read-out: Activity
MDA-MB-435 = assay: Cytotoxicity against human MDA-MB-435 assessed as cell growth at 10 uM after 48 hrs by SRB assay; assay type: functional; details: MDA-MB-435, 48 h, read-out: Activity
SR = assay: Cytotoxicity against human SR assessed as cell growth at 10 uM after 48 hrs by SRB assay; assay type: functional; details: read-out: Activity
Pseudomonas aeruginosa [12] = assay: Antibacterial activity against Pseudomonas aeruginosa at 6.25 to 200 ug/ml after 24 hrs by microwell dilution method; assay type: functional, organism-based
Salmonella paratyphi = assay: Antibacterial activity against Salmonella paratyphi at 10 mg/ml after 24 hrs by disc diffusion method; assay type: functional, organism-based; details: Salmonella enterica subsp. enterica serovar Paratyphi A
Proteus vulgaris [13] = assay: Antibacterial activity against Proteus vulgaris at 6.25 to 200 ug/ml after 24 hrs by microwell dilution method; assay type: functional, organism-based
EKVX = assay: Cytotoxicity against human EKVX assessed as cell growth at 10 uM after 48 hrs by SRB assay; assay type: functional; details: read-out: Activity
OVCAR-4 = assay: Cytotoxicity against human OVCAR4 assessed as cell growth at 10 uM after 48 hrs by SRB assay; assay type: functional; details: OVCAR-4, 48 h, read-out: Activity
Proteus vulgaris [14] = assay: Antibacterial activity against Proteus vulgaris at 10 mg/ml after 24 hrs by disc diffusion method; assay type: functional, organism-based
OVCAR-3 = assay: Cytotoxicity against human OVCAR3 assessed as cell growth at 10 uM after 48 hrs by SRB assay; assay type: functional; details: OVCAR-3, 48 h, read-out: Activity
Micrococcus lylae = assay: Antibacterial activity against Micrococcus lylae at 6.25 to 200 ug/ml after 24 hrs by microwell dilution method; assay type: functional, organism-based
Escherichia coli = assay: Antibacterial activity against Escherichia coli at 6.25 to 200 ug/ml after 24 hrs by microwell dilution method; assay type: functional, organism-based
MDA-MB-468 = assay: Cytotoxicity against human MDA-MB-468 assessed as cell growth at 10 uM after 48 hrs by SRB assay; assay type: functional; details: MDA-MB-468, 48 h, read-out: Activity

CC(C(=O)NN1C(=O)CSC1c1ccc(C(F)(F)F)cc1)c1ccc(-c2ccccc2)c(F)c1 (configuration not stated)
Activity (Staphylococcus cohnii [1]): inactive
Activity (Klebsiella aerogenes [2]): inactive
growth at 10 µM (TK-10): 99.5%
Activity (Photorhabdus luminescens [3]): inactive
Activity (Staphylococcus cohnii [4]): inactive
growth at 10 µM (HOP-62): 82.1%
growth at 10 µM (COLO 205): 108%
growth at 10 µM (KM12): 46.2%
growth at 10 µM (U-251): 65.2%
Activity (Staphylococcus aureus [5]): inactive
Activity (Staphylococcus aureus [6]): inactive
growth at 10 µM (K562): 39.5%
growth at 10 µM (CAKI-1): 33.6%
growth at 10 µM (SK-MEL-2): 88.4%
growth at 10 µM (NCI-H460): 40.5%
Activity (Kluyveromyces marxianus): inactive
Activity [7]: inactive
inhibition (Hepacivirus hominis): 8%
growth at 10 µM (HL-60(TB)): 36.9%
growth at 10 µM (786-0): 47.2%
Activity (Candida tropicalis): inactive
Activity (Pseudomonas aeruginosa [8]): inactive
growth at 10 µM (HCT-116): 45.5%
growth at 10 µM (HCT-15): 69.5%
growth at 10 µM (CCRF-CEM): 74.7%
Activity (Photorhabdus luminescens [9]): inactive
Activity [10]: inactive
growth at 10 µM (HT-29): 55.1%
Activity (Klebsiella aerogenes [11]): inactive
growth at 10 µM (HOP-92): 59.9%
growth at 10 µM (MDA-MB-435): 66.7%
growth at 10 µM (SR): 20.8%
Activity (Pseudomonas aeruginosa [12]): inactive
Activity (Salmonella paratyphi): inactive
Activity (Proteus vulgaris [13]): inactive
growth at 10 µM (EKVX): 57.9%
growth at 10 µM (OVCAR-4): 58.6%
Activity (Proteus vulgaris [14]): inactive
growth at 10 µM (OVCAR-3): 64.3%
Activity (Micrococcus lylae): inactive
Activity (Escherichia coli): inactive
growth at 10 µM (MDA-MB-468): 59.4%
